# Reference: ChEMBL document CHEMBL1121385, “Phenylalkylamines with potential psychotherapeutic utility. 2. Nuclear substituted 2-amino-1-phenylbutanes” (1980)
# Key:
# Felis catus [1] = assay: Numerical score on cat behavior was measured at a dose of 10 mg/kg, administered subcutaneously.; format: functional; conditions: route subcutaneous
# Rattus norvegicus [2] = species: Rattus norvegicus; assay: Evaluated for intertrial interval activity in rat; NE means no statistically significant activity; format: functional, organism-based
# Rattus norvegicus [3] = assay: Minimal dose (ip) required to produce a significant increase in avoidance responding in rat; format: functional; conditions: read-out: MED
# Rattus norvegicus [4] = species: Rattus norvegicus; assay: Potency to produce a significant increase in avoidance responding in rat relative to BL-3912A; format: functional
# Felis catus [5] = assay: Numerical score on cat behavior was measured at a dose of 10 mg/kg administered subcutaneously; format: functional; conditions: route subcutaneous
# Rattus norvegicus [6] = species: Rattus norvegicus; assay: Evaluated for intertrial interval activity in rat; NE means no statistically significant effect; format: functional, organism-based
# Rattus norvegicus [7] = species: Rattus norvegicus; assay: Evaluated for intertrial interval activity in rat; statistically significant increase; format: functional, organism-based
compound,measurement,setting,value
CCCCc1cc(OC)c(C[C@H](N)CC)cc1OC.Cl,Cat score,Felis catus [1],0
same,ITI activity,Rattus norvegicus [2],No effect
same,minimal effective dose,Rattus norvegicus [3],> 20 mg/kg
same,Relative potency,Rattus norvegicus [4],<0.25
CCc1cc(OC)c(C[C@@H](N)CC)cc1OC.Cl,Cat score,Felis catus [1],1
CC[C@@H](N)Cc1cc(OC)c(C)cc1OC.Cl [DIMOXAMINE HYDROCHLORIDE],Cat score,Felis catus [5],1.3
same,ITI activity,Rattus norvegicus [6],No effect
same,minimal effective dose,Rattus norvegicus [3],5 mg/kg
same,Relative potency,Rattus norvegicus [4],1
CCCc1cc(OC)c(C[C@H](N)CC)cc1OC.Cl,Cat score,Felis catus [1],0.5
same,ITI activity,Rattus norvegicus [7],Statistically significant increase
same,minimal effective dose,Rattus norvegicus [3],1 mg/kg
same,Relative potency,Rattus norvegicus [4],5
CC[C@H](N)Cc1cc(OC)c(Br)cc1OC.Cl,Cat score,Felis catus [1],2
CC[C@@H](N)Cc1cc(OC)c(OC(C)C)cc1OC.Cl,Cat score,Felis catus [1],0
CC[C@H](N)Cc1cc(OC)c(C)cc1OC.Cl,Cat score,Felis catus [5],0.5
CCOc1cc(OC)c(C[C@H](N)CC)cc1OC.Cl,Cat score,Felis catus [1],1.5
CC[C@@H](N)Cc1cc(OC)ccc1OC.Cl,Cat score,Felis catus [1]; 10 mg/kg,0.5
CCCc1cc(OC)c(CC(N)CC)cc1OC.Cl (racemic),Cat score,Felis catus [1],2.5
CC[C@@H](N)Cc1cc(OC)c(Cl)cc1OC.Cl,Cat score,Felis catus [1],6.5
same,ITI activity,Rattus norvegicus [6],No effect
same,minimal effective dose,Rattus norvegicus [3],20 mg/kg
same,Relative potency,Rattus norvegicus [4],0.25
CC[C@@H](N)Cc1cc(OC)c(N)cc1OC.Cl,Cat score,Felis catus [1],1.5
CC[C@@H](N)Cc1cc(OC)c(Br)cc1OC.Cl,Cat score,Felis catus [5],3.5
same,ITI activity,Rattus norvegicus [7],Statistically significant increase
same,minimal effective dose,Rattus norvegicus [3],2 mg/kg
same,Relative potency,Rattus norvegicus [4],2.5
CCCOc1cc(OC)c(C[C@H](N)CC)cc1OC.Cl,Cat score,Felis catus [1],1.5
CCc1cc(OC)c(C[C@H](N)CC)cc1OC.Cl,Cat score,Felis catus [5],3.3
same,ITI activity,Rattus norvegicus [7],Statistically significant increase
same,minimal effective dose,Rattus norvegicus [3],2 mg/kg
same,Relative potency,Rattus norvegicus [4],2.5
CC[C@@H](N)Cc1cc(OC)c(C(C)C)cc1OC.Cl,Cat score,Felis catus [1],0
same,ITI activity,Rattus norvegicus [6],No effect
same,minimal effective dose,Rattus norvegicus [3],> 20 mg/kg
same,Relative potency,Rattus norvegicus [4],<0.25
CC[C@H](N)Cc1cc(OC)c(SC)cc1OC.Cl,Cat score,Felis catus [1],1
CCCOc1cc(OC)c(CC(N)CC)cc1OC.Cl (racemic),Cat score,Felis catus [1],0
CC[C@@H](N)Cc1cc(OC)c([N+](=O)[O-])cc1OC.Cl,Cat score,Felis catus [1],3.5
"CCC(N)Cc1cc(OC)ccc1OC.Cl (single isomer, unassigned)",Cat score,Felis catus [1]; 10 mg/kg,2
CCC(N)Cc1cc(OC)ccc1OC.Cl (racemic),Cat score,Felis catus [1],2
CCc1cc(OC)c(CC(N)CC)cc1OC.Cl (racemic),Cat score,Felis catus [5],4
CCC(N)Cc1cc(OC)c(Br)cc1OC.Cl (racemic),Cat score,Felis catus [1],2
CCC(N)Cc1cc(OC)c(C(C)C)cc1OC.Cl (racemic),Cat score,Felis catus [1],0.5
CC[C@@H](N)Cc1cc(OC)c(O)cc1OC.Cl,Cat score,Felis catus [1],0.5
CC[C@@H](N)Cc1cc(OC)c(I)cc1OC.Cl,Cat score,Felis catus [1],2.5
CCC(N)Cc1cc(OC)c(SC)cc1OC.Cl (racemic),Cat score,Felis catus [1],1
